Source: article PMC8115619, “Generation of a chemical genetic model for JAK3” (Scientific Reports, 2021)

Assays:
[1] = biological target: PKBa (Homo sapiens, UniProt P31749); experiment: Selectivity screen PKBa; assay type: biochemical; conditions: 1 µM inhibitor, mean; read-out: activity remaining in the presence of the inhibitor: PKBa
Procedure: For the in vitro kinase assay, JAK3 (5–20 mU diluted in 50 mM Tris pH 7.5, 0.1 mM EGTA, 0.05% β-mercaptoethanol, 1 mg/ml BSA) was assayed against PDKtide ([…]) in a final volume of 25.5 µl containing 50 mM Tris pH 7.5, 0.1 mM EGTA, 0.05% β-mercaptoethanol, 100 µM substrate peptide, 10 mM magnesium acetate and 0.02 mM [33P-γ-ATP] (50–1000 cpm/pmole) and incubated for 30 min at room temperature. Assays were started by the addition of the ATP and stopped by addition of 5 µl of 0.5 M (3%) orthophosphoric acid and then harvested onto P81 Unifilter plates with a wash buffer of 50 mM orthophosphoric acid. To determine the Km for ATP, assays were run using 1, 5, 10, 20, 50, 100, 200, 400, 500 μM ATP and Km derived by non-linear regression fitting to the Michaelis–Menten equation v = Vmax[S]/(Km + [S]). IC50 values for inhibitors via non-linear regression using a parameter model: Y = Bottom + (Top–Bottom)/(1 + (IC50/X)^HillSlope). Non-linear regression was carried out in Prism (version 8). In vitro selectivity screen was carried out as described previously.

[2] = tested on: GM-CSF induced STAT5 phosphorylation in BMDMs; set-up: method as in PMID 26258521; conditions: 5 μM; cited from earlier work
[3] = tested on: JAK3; conditions: ATP 4 μM; read-out: In vitro IC50 JAK3; cited from earlier work
[4] = tested on: JAK2; conditions: ATP 4 μM; read-out: In vitro IC50 JAK2; cited from earlier work

Chain of PKBa (P31749 whole entry): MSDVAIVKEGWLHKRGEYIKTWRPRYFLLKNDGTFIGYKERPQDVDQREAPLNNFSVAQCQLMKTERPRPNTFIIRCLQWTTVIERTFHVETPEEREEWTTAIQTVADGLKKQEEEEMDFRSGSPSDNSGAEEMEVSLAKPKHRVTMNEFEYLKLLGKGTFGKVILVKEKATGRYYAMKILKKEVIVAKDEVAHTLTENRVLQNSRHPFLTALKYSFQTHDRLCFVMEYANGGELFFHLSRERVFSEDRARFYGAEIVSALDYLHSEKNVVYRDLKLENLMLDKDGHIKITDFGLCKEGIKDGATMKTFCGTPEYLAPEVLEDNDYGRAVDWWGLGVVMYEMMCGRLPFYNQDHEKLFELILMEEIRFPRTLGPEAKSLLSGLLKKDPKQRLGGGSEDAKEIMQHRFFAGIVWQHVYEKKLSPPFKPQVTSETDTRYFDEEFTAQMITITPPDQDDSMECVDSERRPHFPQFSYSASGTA

C=CC(=O)Nc1cccc(CNc2nc(Nc3ccc(N4CCOCC4)cc3)ncc2Cl)c1 [TL8-52]
remaining activity at 1 µM [1]: 100%

C=CC(=O)Nc1cccc(CNc2nc(Nc3ccc(N4CCN(C)CC4)cc3OC)ncc2Cl)c1 [TL6-144]
inhibition of GM-CSF signaling in macrophages [2]: does not inhibit

C=CC(=O)N1C[C@H](Nc2ncnc3[nH]ccc23)CC[C@@H]1C [PF-06651600, 1-((2S,5R)-5-((7H-Pyrrolo[2,3-d]pyrimidin-4-yl)amino)-2-methylpiperidin-1-yl)prop-2-en-1-one, reference compound]
IC50 [4]: > 10000 nM
